Assay results published in publication PMC5829821, “Mmf1p Couples Amino Acid Metabolism to Mitochondrial DNA Maintenance in Saccharomyces cerevisiae” (mBio, 2018).

Legend:
Format in all cases: biochemical
RidA = molecular target: T1, RidA (Salmonella enterica, UniProt Q7CP78); experiment: coupled: 2AA generated by Ilv1p([…]-576) from L-serine, pyruvate at A230; details: 50 mM CHES pH 9.5, 0.6 µM Ilv1p, 1.3 µM RidA
T1 construct: purified RidA, preparation described in earlier work
T1 sequence (Q7CP78 1-128): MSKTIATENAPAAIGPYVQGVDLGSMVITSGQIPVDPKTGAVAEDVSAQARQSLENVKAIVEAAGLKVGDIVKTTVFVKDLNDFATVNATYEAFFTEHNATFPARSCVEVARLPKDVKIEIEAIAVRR

Mmf1p(21−147) = molecular target: T2, Mmf1p(21−147) (Saccharomyces cerevisiae, UniProt P40185); experiment: as above; details: 50 mM CHES pH 9.5, 0.6 µM Ilv1p, 1.3 µM Mmf1p
T2 construct: gene MMF1
T2 sequence (P40185 21-145): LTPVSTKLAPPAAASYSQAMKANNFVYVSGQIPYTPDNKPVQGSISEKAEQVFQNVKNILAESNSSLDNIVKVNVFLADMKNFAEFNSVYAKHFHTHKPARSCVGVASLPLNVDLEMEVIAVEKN

Ilv1p(46−576) [1] = molecular target: T3, Ilv1p(46−576) (Saccharomyces cerevisiae, UniProt P00927); experiment: pyruvate formation at A230, Michaelis-Menten fit; details: 50 mM potassium phosphate pH 8
T3 construct: gene ILV1
T3 sequence (P00927 46-576): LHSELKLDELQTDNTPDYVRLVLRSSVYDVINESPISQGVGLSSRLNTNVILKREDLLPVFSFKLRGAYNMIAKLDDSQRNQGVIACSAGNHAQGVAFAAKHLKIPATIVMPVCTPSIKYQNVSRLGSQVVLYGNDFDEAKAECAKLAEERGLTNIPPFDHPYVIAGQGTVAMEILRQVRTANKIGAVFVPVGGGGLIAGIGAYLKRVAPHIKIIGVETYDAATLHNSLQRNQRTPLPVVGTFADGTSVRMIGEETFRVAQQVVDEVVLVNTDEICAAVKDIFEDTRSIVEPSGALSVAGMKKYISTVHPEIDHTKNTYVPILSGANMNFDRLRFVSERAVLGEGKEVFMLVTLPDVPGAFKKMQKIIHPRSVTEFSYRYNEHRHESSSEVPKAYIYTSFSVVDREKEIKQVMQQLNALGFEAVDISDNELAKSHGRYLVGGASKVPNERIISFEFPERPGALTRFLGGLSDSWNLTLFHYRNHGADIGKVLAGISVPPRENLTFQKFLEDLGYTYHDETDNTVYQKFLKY

Ilv1p(46−576) [2] = molecular target: T3, Ilv1p(46−576); details: 120 mM L-serine, 50 mM potassium phosphate pH 8; allosteric

For `C=C(N)C(=O)O` [2-aminoacrylate], the “coupled: 2AA generated by Ilv1p(46-576) from L-serine, pyruvate at A230” value (RidA) was 2AA-hydrolyzing activity of Mmf1p was indistinguishable from that of the well-characterized RidA enzyme and the “coupled: 2AA generated by Ilv1p(46-576) from L-serine, pyruvate at A230” value (Mmf1p(21−147)) was “released 2AA, which Mmf1p used as a substrate”.
In the case of `N[C@@H](CO)C(=O)O` [L-serine], the “pyruvate formation at A230, Michaelis-Menten fit” value (Ilv1p(46−576) [1]) is reported as “In vitro, Ilv1p dehydrated serine and released 2AA”.
`CC[C@H](C)[C@H](N)C(=O)O` [isoleucine] was tested, and the “inhibition at 3.3 mM” value (Ilv1p(46−576) [2]) was “insensitive to isoleucine concentrations that completely inhibited the wild-type enzyme”.
